From US10590113B2, “6-hydroxy-4-oxo-1,4-dihydropyrimidine-5-carboxamides as APJ agonists” (priority 2016, dated 2020)

molecular target: T1, human APJ receptor (Homo sapiens, UniProt P35414); assay: Intracellular cAMP Accumulation Assay (APJ hcAMP, HTRF); type: cell-based; conditions: HEK293 cells stably expressing human APJ receptor; inhibition of forskolin-mediated cAMP production; read-out: Human APJ cAMP EC50 potency range
T1 construct: expressed in transfected cells; host or cells: HEK293
T1 sequence (P35414 1-380): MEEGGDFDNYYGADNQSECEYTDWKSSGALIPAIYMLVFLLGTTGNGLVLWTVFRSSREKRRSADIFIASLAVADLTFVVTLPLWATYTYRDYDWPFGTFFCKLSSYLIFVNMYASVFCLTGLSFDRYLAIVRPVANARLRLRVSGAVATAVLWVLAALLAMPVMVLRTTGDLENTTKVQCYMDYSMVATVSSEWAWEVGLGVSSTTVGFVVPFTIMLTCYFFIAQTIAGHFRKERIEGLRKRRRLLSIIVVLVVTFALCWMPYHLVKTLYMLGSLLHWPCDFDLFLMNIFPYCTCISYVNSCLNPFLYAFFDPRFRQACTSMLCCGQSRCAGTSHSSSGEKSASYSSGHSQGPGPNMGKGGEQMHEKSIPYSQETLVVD
Method in brief: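 Stably transfected HEK293 cells (5,000/well) incubated 30 min at room temperature with serially diluted compound, […] and 2 μM forskolin. cAMP measured by HTRF after 60 min with detection reagents, quantified against a cAMP standard curve; EC50 from variable-slope sigmoidal fit of inhibition of forskolin-stimulated cAMP.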

EC50 [nM]	SMILES
0.01 to 10	CCOCc1nc(=O)c(C(=O)N2CCC(c3ccccn3)C2)c(O)n1-c1c(OC)cccc1OC (stereo not drawn) [Example 3, 1-(2,6-Dimethoxyphenyl)-2-(ethoxymethyl)-6-hydroxy-5-(3-(pyridin-2-yl)pyrrolidine-1-carbonyl)pyrimidin-4(1H)-one]

same assay, conditions: human APJ, cAMP accumulation; potency range class; read-out: hAPJ cAMP EC50 Potency range

EC50 [nM]	SMILES
0.01 to 10	CCc1cccc(CC)c1-n1c(-c2ccn(C(C)C)n2)nc(=O)c(C(=O)N2CCC(c3ncc(Cl)cc3F)C2)c1O (single isomer, unassigned) [Example 290, 5-[3-(5-chloro-3-fluoropyridin-2-yl)pyrrolidine-1-carbonyl]-1-(2,6-diethylphenyl)-6-hydroxy-2-[1-(propan-2-yl)-1H-pyrazol-3-yl]-1,4-dihydropyrimidin-4-one]
0.01 to 10	CCn1ccc(-c2nc(=O)c(C(=O)N3CCC(c4ncc(F)cc4F)C3)c(O)n2[C@H](c2cc(F)cc(F)c2)C(C)C)n1 (single isomer, unassigned) [Example 327]
0.01 to 10	CCc1cccc(CC)c1-n1c(-c2cnn(CC)c2)nc(=O)c(C(=O)N2CCC(c3ccccc3F)C2)c1O (single isomer, unassigned) [Example 310, 1-(2,6-diethylphenyl)-2-(1-ethyl-1H-pyrazol-4-yl)-5-[3-(2-fluorophenyl)pyrrolidine-1-carbonyl]-6-hydroxy-1,4-dihydropyrimidin-4-one]

same assay, conditions: human APJ, intracellular cAMP accumulation; read-out: hAPJ cAMP EC50 Potency range

EC50 [nM]	SMILES
0.01 to 10	CCOCc1nc(=O)c(C(=O)N2CCC(c3cccc(F)c3)C2)c(O)n1-c1c(OC)cccc1OC (single isomer, unassigned) [Example 84, 1-(2,6-dimethoxyphenyl)-2-(ethoxymethyl)-5-[3-(3-fluorophenyl)pyrrolidine-1-carbonyl]-6-hydroxy-1,4-dihydropyrimidin-4-one]
0.01 to 10	COc1cccc(OC)c1-n1c(COC(C)C)nc(=O)c(C(=O)N2CCC(c3ccccc3F)C2)c1O (single isomer, unassigned) [Example 93, 1-(2,6-dimethoxyphenyl)-5-[3-(2-fluorophenyl)pyrrolidine-1-carbonyl]-6-hydroxy-2-[(propan-2-yloxy)methyl]-1,4-dihydropyrimidin-4-one]
0.01 to 10	CCCCc1nc(O)c(C(=O)N2CCC(c3ccc(F)cc3)C2)c(=O)n1-c1c(CC)cccc1CC (racemic) [Example 89, 2-butyl-3-(2,6-diethylphenyl)-5-[3-(4-fluorophenyl)pyrrolidine-1-carbonyl]-6-hydroxy-3,4-dihydropyrimidin-4-one]
10 to 100	COc1cccc(OC)c1-n1c(COC(C)C)nc(=O)c(C(=O)N2CC(c3ccc(C)cc3)C2)c1O [Example 111, 1-(2,6-dimethoxyphenyl)-6-hydroxy-5-[3-(4-methylphenyl)azetidine-1-carbonyl]-2-[(propan-2-yloxy)methyl]-1,4-dihydropyrimidin-4-one]
0.01 to 10	COc1cccc(OC)c1-n1c(COC(C)C)nc(=O)c(C(=O)N2CCC(c3ccccc3C(F)(F)F)C2)c1O (single isomer, unassigned) [Example 101, 1-(2,6-dimethoxyphenyl)-6-hydroxy-2-[(propan-2-yloxy)methyl]-5-{3-[2-(trifluoromethyl)phenyl]pyrrolidine-1-carbonyl}-1,4-dihydropyrimidin-4-one]
0.01 to 10	COc1cccc(OC)c1-n1c(COC2CC2)nc(=O)c(C(=O)N2CCC(c3ccc(Cl)cc3)C2)c1O (single isomer, unassigned) [Example 21, 5-(3-(4-chlorophenyl)pyrrolidine-1-carbonyl)-2-(cyclopropoxymethyl)-1-(2,6-dimethoxyphenyl)-6-hydroxypyrimidin-4(1H)-one]
0.01 to 10	CCOCc1nc(=O)c(C(=O)N2CCC(c3ccc(F)cc3)C2)c(O)n1-c1c(OC)cccc1OC (single isomer, unassigned) [Example 81, 1-(2,6-dimethoxyphenyl)-2-(ethoxymethyl)-5-[3-(4-fluorophenyl)pyrrolidine-1-carbonyl]-6-hydroxy-1,4-dihydropyrimidin-4-one]
0.01 to 10	CCCCc1nc(=O)c(C(=O)N2CC[C@@H](c3ccccc3)C2)c(O)n1[C@@H](CC)c1ccccc1 [Example 121, 2-butyl-6-hydroxy-3-[(1S)-1-phenylpropyl]-5-[(3S)-3-phenylpyrrolidine-1-carbonyl]-3,4-dihydropyrimidin-4-one]
0.01 to 10	COc1cccc(OC)c1-n1c(CCC2CC2)nc(=O)c(C(=O)N2CCC(c3ncc(Cl)cc3F)C2)c1O (single isomer, unassigned) [Example 180, 5-[3-(5-chloro-3-fluoropyridin-2-yl)pyrrolidine-1-carbonyl]-2-(2-cyclopropylethyl)-1-(2,6-dimethoxyphenyl)-6-hydroxy-1,4-dihydropyrimidin-4-one]
0.01 to 10	CC[C@@H](c1cc(F)cc(F)c1)n1c(-c2ccn(C)n2)nc(=O)c(C(=O)N2CCC(c3ncccc3F)C2)c1O (single isomer, unassigned) [Example 201]
0.01 to 10	COc1cccc(OC)c1-n1c(CCC2CC2)nc(=O)c(C(=O)N2CCC(c3ccc(Cl)cn3)C2)c1O (single isomer, unassigned) [Example 171, 5-[3-(5-chloropyridin-2-yl)pyrrolidine-1-carbonyl]-2-(2-cyclopropylethyl)-1-(2,6-dimethoxyphenyl)-6-hydroxy-1,4-dihydropyrimidin-4-one]
0.01 to 10	COc1cccc(OC)c1-n1c(COC2CC2)nc(=O)c(C(=O)N2CCC(c3ccccc3C)C2)c1O (single isomer, unassigned) [Example 19, 2-(cyclopropoxymethyl)-1-(2,6-dimethoxyphenyl)-6-hydroxy-5-(3-(o-tolyl)pyrrolidine-1-carbonyl)pyrimidin-4(1H)-one]

SMILES	EC50 [nM]
COc1cccc(OC)c1-n1c(COC(C)(C)C)nc(=O)c(C(=O)N2CCC(c3ccc(F)cc3)C2)c1O (stereo not drawn) [Example 44, 2-[(tert-butoxy)methyl]-1-(2,6-dimethoxyphenyl)-5-[3-(4-fluorophenyl)pyrrolidine-1-carbonyl]-6-hydroxy-1,4-dihydropyrimidin-4-one]	0.01 to 10
COc1cccc(OC)c1-n1c(COC(C)(C)C)nc(=O)c(C(=O)N2CC[C@H](c3ccccc3)C2)c1O [Example 51, 2-[(tert-butoxy)methyl]-1-(2,6-dimethoxyphenyl)-6-hydroxy-5-[(3R)-3-phenylpyrrolidine-1-carbonyl]-1,4-dihydropyrimidin-4-one]	0.01 to 10

same assay, conditions: read-out: hAPJ cAMP EC50 Potency range

EC50 [nM]	SMILES
0.01 to 10	CCCCc1nc(=O)c(C(=O)N2CCC(Oc3cccc(F)c3Cl)CC2)c(O)n1-c1c(OC)cccc1OC [Example 383, 2-butyl-5-(4-(2-chloro-3-fluorophenoxy)piperidine-1-carbonyl)-1-(2,6-dimethoxyphenyl)-6-hydroxypyrimidin-4(1H)-one]
0.01 to 10	CCCCc1nc(=O)c(C(=O)N2CCC(Oc3cc(F)ccc3Cl)CC2)c(O)n1-c1c(OC)cccc1OC [Example 385, 2-butyl-5-(4-(2-chloro-5-fluorophenoxy)piperidine-1-carbonyl)-1-(2,6-dimethoxyphenyl)-6-hydroxypyrimidin-4(1H)-one]
0.01 to 10	CCCCc1nc(=O)c(C(=O)N2CCC(c3ccc(F)cn3)C2)c(O)n1-c1c(OC)cccc1OC (single isomer, unassigned) [Example 371, 2-butyl-1-(2,6-dimethoxyphenyl)-5-(3-(5-fluoropyridin-2-yl)pyrrolidine-1-carbonyl)-6-hydroxypyrimidin-4(1H)-one]
